# Experimental data: patent publication US6077872A (priority 1998, dated 2000)
# Entries after “also recorded” stand apart in the source; their conditions may differ. Where two headings read alike, the source gives them in different places.
# Legend:
# [1] = system: ovariectomized rats with osteoporosis; assay: Test II: dry femur weight, ash weight and calcium content in ovariectomized rats; details: for ash weight: model-control 282.3 ± 30.5; for calcium content: model-control 341.9 ± 43.9; for dry femur weight: model-control 493.4 ± 28.1
# Procedure: (§4) Female rats at the age of 3 months were excised of bilateral ovaries under sterilized condition, and were then fed low-calcium diet and offered with deionized water for 75 days, thus made an osteoporosis model.
# Female 3-month-aged rats which had been excised of bilateral ovaries under sterilized condition were fed for a week until their wound was cured. Seventy healthy rats were selected and divided randomly into five groups of 14 rats. […] Group 1-5 were administered one time per day and 6 times per week and were also fed low-calcium diet and de-ionized water. The test period was 75 days. […] The bilateral femurs of rats were stripped off and stored in refrigerator. […] The right femur was stored for analysis of Ca content in femur.
# (§5) After pulled off soft tissue, the right femur was dried for 5 hours in oven at the temperature of 120° C. until its weight kept a constant (dry weight), then the product was baked for 6 hours in muffle furnace at the temperature of 800° C. until the weight of the product kept a constant which was the ash weight, namely the total amount of inorganic salts. After part of the ash was resolved in dilute hydrochloride, the calcium content of ash was measured by the method of EDTA titration. All data was expressed as X±SD(n). The significance of differences between groups were assessed using the "T-test" method of two groups of small specimen.
# [2] = system: ovariectomized rats with osteoporosis; assay: Test II: bone mineral density of femur in ovariectomized rats; details: for bone density F50: center of femur; for bone density F20: proximal position 20%, model-control 0.256 ± 0.022
# Procedure: Female 3-month-aged rats which had been excised of bilateral ovaries under sterilized condition were fed for a week until their wound was cured. Seventy healthy rats were selected and divided randomly into five groups of 14 rats. […] Group 1-5 were administered one time per day and 6 times per week and were also fed low-calcium diet and de-ionized water. The test period was 75 days. […] The bilateral femurs of rats were stripped off and stored in refrigerator. After the measurement of the bone mineral density, the left femur was stored for analysis of biomechanical characteristics.
# (4) Measurement of bone mineral density. Fresh femur iced in refrigerator was measured of bone mineral content at the center (F50) and the proximal position 20% (F20) of femur by single photon absorptiometry (Model BMD400GI) with a scanning speed of 0.25 mm/s and a precision degree of 99%, the Apparatus was proofread using a standard apparatus provided by Jishuitan Hospital, Beijing. The data was processed by software used clinically. The bone mineral content was expressed by a unit of bone mineral content per square centimeter (BMC/cm^2).
# [3] = system: ovariectomized rats with osteoporosis; details: for Y (flexibility, tenacity): model-control 4.0 ± 1.1; for P (maximum of force at yielding point, femur strength): model-control 6.7 ± 1.2; for S (work to yield or break femur): model-control 11.3 ± 4.7
# Procedure: as §4
# Seventy healthy rats were selected and divided randomly into five groups of 14 rats. […] Group 1-5 were administered one time per day and 6 times per week and were also fed low-calcium diet and de-ionized water. The test period was 75 days. When the test was finished, rats were killed by bleeding from bilateral thigh arteries, the separated serum was used for measurement of biochemical parameters such as Ca, P, and AKP and Tr-ACP levels in serum. The bilateral femurs of rats were stripped off and stored in refrigerator. After the measurement of the bone mineral density, the left femur was stored for analysis of biomechanical characteristics. The right femur was stored for analysis of Ca content in femur.
# (§6) Three-point bending test was done on the fresh femur iced in refrigerator with a Model WD-1 Electron Universal Test Machine under the following conditions: a span of 2.5 cm, a 25 kg sensor (1/50), a speed of 2 mm/minute. The function of load versus flexibility was recorded by a finction recorder, wherein P represented the maximum of force at yielding point, Y was flexibility indicating the tenacity of materials. K, as the rate of slope, was a rigidity parameter of materials and was associated with the degree of calcification in bone mechanics. S stood for the work to yield or break femur.
# rickets-mice [4] = assay: Preventing rickets in younger mice: serum Ca, AKP, P; format: in vivo, mice of Kunming species; details: for serum Ca / serum P / serum AKP (in Bessey-Loury unit): 60 days; for serum Ca: model 1.55 ± 0.42; for serum P: model 2.23 ± 0.52; for serum AKP (in Bessey-Loury unit): model 101 ± 34
# Procedure: (§1) The mice were bred for 60 days under conditions of avoiding light around-the-clock, at a temperature of 20-25° C. and a relative humility of 40-60% while the normal-control group mice were fed ordinary diet and water and were placed in non-dark room.
# (§2) The low-calcium diet used in this test was the same as that in Test II but VD in the vitamin mixture was replaced by glucose.
# (§3) Some weanling mice were placed in dark room and fed VD -deficient low-calcium diet and drunk de-ionized water for 60 days, thus a ricket model of baby mice was prepared. While other weanling mice were placed in non-dark room and fed ordinary diet and drunk tap water for 60 days, these mice were established as normal-control group.
# [5] = system: castrated male rats with osteoporosis; details: for K (calcification of bone): model-control 1.50 ± 0.26; for P (strength of femur): model-control 5.2 ± 1.1; for Y (flexibility, tenacity): model-control 8.0 ± 1.2; for S (work to break the bone): model-control 24.5 ± 7.5
# Procedure: as §6
# In this test, chemicals were the saine as in test II, animals were male Wistar rats each weighing 150±10 g and were provided by Animal Center of the National Institute for the Identification of Pharmaceuticals and Biological Products, Beijing. The breeding of the rats was the same as in test II.
# The male rats each weighing 150±10 g were excised of bilateral spermaries and were fed low-calcium diet and offered deionized water for 60 days, thus made a model of osteoporosis.
# Seventy of the castrated male rats were divided into groups and tested in the same manner as Test II but the days of administration were 52 days during the 60 days of test.
# (§7) In this test, the measuring methods for serum Ca, P, AKP levels, the bone mineral density, the length of femur, wet weight, dry weight, ash weight, the calcium content and the biomechanics of femur were all the same as in test II.
# [6] = Solubility of calcium L-threonate; format: physicochemical
# [7] = system: castrated male rats with osteoporosis; details: for bone mineral density F50: model-control 0.235 ± 0.022; for bone mineral density F20: model-control 0.244 ± 0.025
# Excerpt: (4) Measurement of bone mineral density.
# rickets-mice [8] = assay: Preventing rickets in younger mice: tibia strength (three-point bending); format: in vivo, mice of Kunming species; details: for breaking force (tibia): model 1.12 ± 0.37
# Procedure: as §1, §2, §3
# [9] = system: castrated male rats with osteoporosis; details: for length of femur: model 3.26 ± 0.09; for ash weight of femur: model 187.5 ± 18.0; for calcium content of femur: model 245.1 ± 25.7; for dry weight of femur: model 360.0 ± 32.1; for wet weight of femur: model 638.3 ± 57.6
# Procedure: as §5, §7
# rickets-babies = system: rickets-babies
# Procedure: Fourty rickets-babies at the age of 3-10 months were randomly divided into 2 groups of 20 babies each. […] Test group II, namely the calcium carbonate group, were administered orally calcium carbonate twice a day in a dosage of one bag each time.
# (2) Biochemical examinations of blood. Venous blood of rickets-baby was sampled before and after the beginning of test and serum Ca, P and AKP level were measured and the product of [Ca]×[P] was calculated.
# (3) Data processing: All data was statistically analyzed using the method of direct calculation of probability, grouping t-test and pairing t-test.
# Considering the difficulty in sampling blood from rickets-babies during the test operation, blood sampling was not performed at the second week after the beginning of the test. Blood sampling was only performed before the test and at the fourth week after the beginning of the test.
# in vivo = details: rat, in vivo
# Excerpt: (2) apparatus: Model WFX-1B Spectrophotometer of Atomic Absorption was produced by The Second Optical Apparatus Factory of Beijing, 83114; P-E 3030 Spectrophotometer of Atomic Absorption was produced by Perkin-Elmer Corp.,USA;DT-100 Single-Pan Balance (1/10^4) was produced by Beijing Optical Apparatus Factory; TJ-6 Centrifuge was produced by Beckman, USA; Model MVS-1 Vortex Mixer was produced by Beijing Beide Scientific Apparatus and Materials Co. Ltd.
# Twelve hours after the animals had been fasted, 0.5 mL plasma was sampled by excising eyeballs. The plasma was established as the blank group. Then rats were administered agents once in an amount of 20 mL/kg body weight by pouring into the stomach. 0.5 mL plasma was sampled by taking from eyeballs 0.25,0.5,1,1.5,2,3,4,6,8,12 and 16 hours later after the administration. […] The concentration of calcium was measured by a Model WFX-1B Spectrophotometer of Atomic Absorption.
# [10] = 2.31 g/kg/d (300 mg calcium; Caltrate-D 0.65 g/kg/d)
# [11] = after four weeks of Ca-supplementing
smiles,measurement,setting,value
O=C(O)[C@H](O)[C@@H](O)CO [calcium L-threonate],ash weight,[1]; 100 mg element calcium/kg/d,308.5 ± 11.4 mg
same,calcium content,[1]; 100 mg element calcium/kg/d,387.8 ± 91.9 mg/g dry weight
same,dry femur weight,[1]; 100 mg element calcium/kg/d,517 ± 21.8 mg
same,ash weight,[1]; 200 mg element calcium/kg/d,325.3 ± 23.5 mg
same,calcium content,[1]; 200 mg element calcium/kg/d,455.1 mg/g dry weight
same,dry femur weight,[1]; 200 mg element calcium/kg/d,553.0 ± 38.1 mg
same,ash weight,[1]; 300 mg element calcium/kg/d,332.4 ± 13.0 mg
same,calcium content,[1]; 300 mg element calcium/kg/d,445.7 mg/g dry weight
same,dry femur weight,[1]; 300 mg element calcium/kg/d,546.6 ± 22.8 mg
same,loss of bone matrix (in words),"[1]; rat, in vivo",retard the loss of bone matrix; also recorded: markedly control and inhibit the loss of bone matrix
same,bone density F50,[2]; 100 mg element calcium/kg/d,0.289 ± 0.021 BMC/BW
same,bone density F20,[2]; 100 mg element calcium/kg/d,0.288 ± 0.021 BMC/BW
same,bone density F50,[2]; 200 mg element calcium/kg/d,0.282 ± 0.020 BMC/BW
same,bone density F20,[2]; 200 mg element calcium/kg/d,0.315 ± 0.032 BMC/BW
same,bone density F20,[2]; 300 mg element calcium/kg/d,0.314 ± 0.020 BMC/BW
same,bone density effect (in words),[2]; versus model-control group,markedly higher than that of model-control group rats
same,"K (rigidity parameter, calcified degree)",[3]; 100 mg element calcium/kg/d,2.71 ± 0.36
same,"Y (flexibility, tenacity)",[3]; 100 mg element calcium/kg/d,4.1 ± 0.7
same,"P (maximum of force at yielding point, femur strength)",[3]; 100 mg element calcium/kg/d,7.9 ± 1.0
same,S (work to yield or break femur),[3]; 100 mg element calcium/kg/d,14.0
same,"K (rigidity parameter, calcified degree)",[3]; 200 mg element calcium/kg/d,2.75 ± 0.31
same,"Y (flexibility, tenacity)",[3]; 200 mg element calcium/kg/d,5.3 ± 1.4
same,"P (maximum of force at yielding point, femur strength)",[3]; 200 mg element calcium/kg/d,8.5 ± 0.8
same,"Y (flexibility, tenacity)",[3]; 300 mg element calcium/kg/d,5.9 ± 1.2
same,"P (maximum of force at yielding point, femur strength)",[3]; 300 mg element calcium/kg/d,9.6 ± 1.7
same,S (work to yield or break femur),[3]; 300 mg element calcium/kg/d,29.4
same,serum Ca,rickets-mice [4]; 200 mg calcium element,2.33 ± 0.82 mmol/L
same,serum P,rickets-mice [4]; 200 mg calcium element,1.52 ± 0.45 mmol/L
same,serum AKP (in Bessey-Loury unit),rickets-mice [4]; 200 mg calcium element,59.3 ± 14 U/L
same,serum Ca,rickets-mice [4]; 300 mg calcium element,2.17 ± 0.82 mmol/L
same,serum P,rickets-mice [4]; 300 mg calcium element,1.35 ± 0.34 mmol/L
same,serum AKP (in Bessey-Loury unit),rickets-mice [4]; 300 mg calcium element,43.1 ± 14 U/L
same,serum Ca effect (in words),rickets-mice [4]; high and low dosage,approximate to that of the normal-control group but were much higher than those of the model group
same,serum AKP effect (in words),"rickets-mice [4]; mouse, in vivo",much lower than those of the model group
same,K (calcification of bone),[5]; 100 mg element calcium/kg/d,2.05 ± 0.25
same,P (strength of femur),[5]; 100 mg element calcium/kg/d,7.6 ± 1.1
same,"Y (flexibility, tenacity)",[5]; 100 mg element calcium/kg/d,7.3 ± 1.6
same,S (work to break the bone),[5]; 100 mg element calcium/kg/d,29.7
same,K (calcification of bone),[5]; 200 mg element calcium/kg/d,2.27 ± 0.42
same,P (strength of femur),[5]; 200 mg element calcium/kg/d,8.7 ± 1.2
same,"Y (flexibility, tenacity)",[5]; 200 mg element calcium/kg/d,6.6 ± 1.1
same,S (work to break the bone),[5]; 200 mg element calcium/kg/d,28.3
same,K (calcification of bone),[5]; 300 mg element calcium/kg/d,2.52 ± 0.22
same,P (strength of femur),[5]; 300 mg element calcium/kg/d,9.3 ± 0.9
same,"Y (flexibility, tenacity)",[5]; 300 mg element calcium/kg/d,6.3 ± 1.0
same,S (work to break the bone),[5]; 300 mg element calcium/kg/d,28.7 ± 7.8
same,"P,K,S values (in words)","[5]; rat, in vivo",markedly increased in contrast to those of the model group rats
same,"solubility in alcohol, ether and chloroform","[6]; alcohol, ether, chloroform","not in alcohol, ether and chloroform"
same,solubility in water,[6]; water,can be solved in water
same,bone mineral density F50,[7]; 100 mg element calcium/kg/d,0.255 ± 0.025 BMC/BW
same,bone mineral density F20,[7]; 100 mg element calcium/kg/d,0.297 ± 0.037 BMC/BW
same,bone mineral density F50,[7]; 200 mg element calcium/kg/d,0.269 ± 0.019 BMC/BW
same,bone mineral density F20,[7]; 200 mg element calcium/kg/d,0.308 ± 0.020 BMC/BW
same,bone mineral density F50,[7]; 300 mg element calcium/kg/d,0.274 ± 0.018 BMC/BW
same,bone mineral density F20,[7]; 300 mg element calcium/kg/d,0.327 ± 0.033 BMC/BW
same,breaking force (tibia),rickets-mice [8]; 200 mg calcium element,1.49 ± 0.38 kg
same,breaking force (tibia),rickets-mice [8]; 300 mg calcium element,1.59 ± 0.27 kg
same,breaking force of tibia (in words),"rickets-mice [8]; mouse, in vivo",significantly higher than those for the model group and were comparable with those for the normal-control group
same,length of femur,[9]; 0.76 g/kg/d,3.34 ± 0.05 cm
same,ash weight of femur,[9]; 0.76 g/kg/d,233.1 ± 19.76 mg
same,calcium content of femur,[9]; 0.76 g/kg/d,267.0
same,dry weight of femur,[9]; 0.76 g/kg/d,416.7 ± 29.7 g
same,wet weight of femur,[9]; 0.76 g/kg/d,688.4 ± 47.4 g
same,length of femur,[9]; 1.54 g/kg/d,3.34 ± 0.08 cm
same,ash weight of femur,[9]; 1.54 g/kg/d,269.66 ± 23.4 mg
same,calcium content of femur,[9]; 1.54 g/kg/d,268.2
same,dry weight of femur,[9]; 1.54 g/kg/d,458.1 ± 39.1 g
same,wet weight of femur,[9]; 1.54 g/kg/d,720.2 ± 69.7 g
same,length of femur,[9]; [10],3.35 ± 0.09 cm
same,ash weight of femur,[9]; [10],278.2 ± 31.8 mg
same,calcium content of femur,[9]; [10],266.7
same,dry weight of femur,[9]; [10],473.4 ± 57.2 g
same,wet weight of femur,[9]; [10],747.3 ± 95.2 g
same,"femur length, weights and calcium content (in words)","[9]; rat, in vivo","markedly higher femur length, wet weight, dry weight, ash weight and calcium content than those of the model group rats"
same,percentage of babies whose AKP reached the normal range,rickets-babies; [11],90%
same,percentage of babies whose [Ca] × [P] reached the normal range,rickets-babies; [11],100%
same,percentage of babies whose serum P reached the normal range,rickets-babies; [11],100%
same,serum Ca change (in words),"rickets-babies; before and after the test, P>0.05",no significant variation
same,serum P and AKP after test versus normal range (in words),rickets-babies; four weeks,raise the indexes to the normal range of value
same,serum P,"rickets-babies; four weeks after, before 3.19 ± 0.25 (threonate), 3.12 ± 0.20 (carbonate)",4.50 ± 0.26
same,serum Ca,"rickets-babies; four weeks after, before 10.49 ± 0.39 (threonate), 10.51 ± 0.47 (carbonate)",10.65 ± 0.35
same,[Ca] × [P],"rickets-babies; four weeks after, before 33.4 ± 2.47 (threonate), 33.83 ± 2.17 (carbonate)",47.34 ± 3.15
same,AKP,"rickets-babies; four weeks after, before 235.95 ± 7.89 (threonate), 235.25 ± 7.37 (carbonate)",203.75 ± 11.46
same,absorption rate constant ka,in vivo,6.14 h⁻¹
same,CL/F,in vivo; po,17.3 mL/min/kg
same,Vd/F,in vivo; po,6.69 L/kg
same,AUC,"in vivo; po, 200 mg/kg",192 µg·h/mL
same,Cmax,"in vivo; po, 200 mg/kg",27200 ng/mL
same,half-life,"in vivo; po, 200 mg/kg",4.45 h
same,Tmax,"in vivo; po, 200 mg/kg, Tmax",0.797 h
